The text below walks through data of ChEMBL document CHEMBL1201862, “PubChem BioAssay data set” (2004).

The target of one data set is T1, Caspase-3 (Homo sapiens, UniProt P42574).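 Also: Dose-response selectivity test against caspase-3 for candidate inhibitors of sentrin-specific proteases (SENPs).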
T1 sequence (P42574 whole entry): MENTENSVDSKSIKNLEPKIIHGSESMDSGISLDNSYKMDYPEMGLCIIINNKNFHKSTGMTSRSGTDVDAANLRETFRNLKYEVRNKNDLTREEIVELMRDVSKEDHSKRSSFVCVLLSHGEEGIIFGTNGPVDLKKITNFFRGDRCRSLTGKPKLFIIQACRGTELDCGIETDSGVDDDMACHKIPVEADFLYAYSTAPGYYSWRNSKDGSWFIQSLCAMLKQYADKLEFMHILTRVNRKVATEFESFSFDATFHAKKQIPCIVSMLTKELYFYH
Format: functional.

The target in data set [1] is T2, Sentrin-specific protease 7 (Homo sapiens, UniProt Q9BQF6).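 Also: Luminescence-based dose-response confirmation of ultra-high-throughput screening hits, measuring inhibition of SENP7.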
T2 sequence (Q9BQF6 whole entry): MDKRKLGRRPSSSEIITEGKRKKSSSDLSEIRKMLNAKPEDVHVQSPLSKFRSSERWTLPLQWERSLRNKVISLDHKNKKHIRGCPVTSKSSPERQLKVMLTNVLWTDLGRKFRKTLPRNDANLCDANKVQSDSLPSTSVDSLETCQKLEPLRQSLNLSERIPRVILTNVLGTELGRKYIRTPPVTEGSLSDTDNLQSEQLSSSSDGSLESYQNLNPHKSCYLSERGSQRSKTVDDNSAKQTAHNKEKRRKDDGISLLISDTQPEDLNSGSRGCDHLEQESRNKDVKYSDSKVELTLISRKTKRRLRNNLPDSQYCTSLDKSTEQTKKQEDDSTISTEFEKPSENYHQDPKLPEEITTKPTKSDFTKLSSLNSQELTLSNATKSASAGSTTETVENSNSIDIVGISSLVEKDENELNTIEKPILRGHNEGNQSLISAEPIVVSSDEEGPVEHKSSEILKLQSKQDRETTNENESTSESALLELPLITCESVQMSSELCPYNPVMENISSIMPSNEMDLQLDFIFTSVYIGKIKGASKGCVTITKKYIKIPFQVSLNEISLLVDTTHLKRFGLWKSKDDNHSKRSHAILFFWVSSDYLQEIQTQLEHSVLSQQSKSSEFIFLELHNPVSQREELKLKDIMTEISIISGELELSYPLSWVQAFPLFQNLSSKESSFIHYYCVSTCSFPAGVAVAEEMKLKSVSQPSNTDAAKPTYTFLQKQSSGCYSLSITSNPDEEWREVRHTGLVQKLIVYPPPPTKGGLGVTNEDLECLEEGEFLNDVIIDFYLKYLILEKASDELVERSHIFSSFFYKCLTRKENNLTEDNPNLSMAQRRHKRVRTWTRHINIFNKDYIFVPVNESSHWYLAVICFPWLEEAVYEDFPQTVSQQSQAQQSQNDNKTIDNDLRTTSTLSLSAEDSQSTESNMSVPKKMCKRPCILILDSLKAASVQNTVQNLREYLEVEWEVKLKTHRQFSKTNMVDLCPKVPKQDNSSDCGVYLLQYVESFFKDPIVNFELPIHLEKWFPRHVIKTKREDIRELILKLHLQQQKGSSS
Format: functional.

In data set [2] the target is T3, Sentrin-specific protease 6 (Homo sapiens, UniProt Q9GZR1).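 Also: Luminescence-based dose-response confirmatory assay of SENP6 inhibition, following up an ultra-high-throughput screen.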
T3 sequence (Q9GZR1 whole entry): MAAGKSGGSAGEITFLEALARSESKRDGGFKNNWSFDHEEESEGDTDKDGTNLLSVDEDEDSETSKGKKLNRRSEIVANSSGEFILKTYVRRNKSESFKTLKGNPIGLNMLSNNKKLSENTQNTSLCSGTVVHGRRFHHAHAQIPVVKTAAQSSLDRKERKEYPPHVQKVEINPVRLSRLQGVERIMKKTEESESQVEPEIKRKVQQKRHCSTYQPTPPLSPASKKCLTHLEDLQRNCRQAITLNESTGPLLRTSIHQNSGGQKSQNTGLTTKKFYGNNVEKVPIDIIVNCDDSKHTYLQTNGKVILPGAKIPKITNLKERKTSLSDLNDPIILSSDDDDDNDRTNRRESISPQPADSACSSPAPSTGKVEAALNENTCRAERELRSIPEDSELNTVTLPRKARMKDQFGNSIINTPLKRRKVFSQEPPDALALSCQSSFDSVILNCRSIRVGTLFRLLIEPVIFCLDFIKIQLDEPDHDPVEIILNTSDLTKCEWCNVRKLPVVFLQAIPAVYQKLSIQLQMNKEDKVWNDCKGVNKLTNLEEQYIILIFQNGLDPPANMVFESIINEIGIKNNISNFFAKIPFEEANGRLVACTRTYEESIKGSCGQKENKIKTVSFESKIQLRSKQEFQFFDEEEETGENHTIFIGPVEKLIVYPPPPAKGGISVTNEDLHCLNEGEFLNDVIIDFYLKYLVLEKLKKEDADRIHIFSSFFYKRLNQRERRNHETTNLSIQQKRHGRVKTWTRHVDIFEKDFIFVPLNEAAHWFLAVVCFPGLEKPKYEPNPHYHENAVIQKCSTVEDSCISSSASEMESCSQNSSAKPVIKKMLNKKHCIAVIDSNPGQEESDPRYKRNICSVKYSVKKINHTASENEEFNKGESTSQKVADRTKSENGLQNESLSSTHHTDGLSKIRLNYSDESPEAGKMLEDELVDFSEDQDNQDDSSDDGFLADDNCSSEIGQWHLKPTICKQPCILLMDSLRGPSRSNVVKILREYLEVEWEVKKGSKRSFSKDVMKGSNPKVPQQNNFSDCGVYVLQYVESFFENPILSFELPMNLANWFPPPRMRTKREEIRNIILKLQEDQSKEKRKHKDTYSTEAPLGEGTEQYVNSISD
Format: functional.

Data set [3] addresses T4, Sentrin-specific protease 8 (Homo sapiens, UniProt Q96LD8).
T4 sequence (Q96LD8 whole entry): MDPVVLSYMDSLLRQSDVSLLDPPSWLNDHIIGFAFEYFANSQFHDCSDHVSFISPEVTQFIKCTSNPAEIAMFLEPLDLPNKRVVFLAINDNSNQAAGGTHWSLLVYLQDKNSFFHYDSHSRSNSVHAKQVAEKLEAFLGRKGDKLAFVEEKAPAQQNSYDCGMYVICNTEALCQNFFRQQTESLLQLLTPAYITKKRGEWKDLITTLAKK
Format: functional.

Data set [4] has as its target Calcium/calmodulin-dependent protein kinase type II subunit delta (Homo sapiens, UniProt Q13557). Format: functional.
In data set [5] the target is Glycogen synthase kinase-3 alpha (Homo sapiens, UniProt P49840). Format: functional.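 Also: GSK3A result taken from a broad kinome-wide kinase panel.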
Sequence of Glycogen synthase kinase-3 alpha (P49840 whole entry): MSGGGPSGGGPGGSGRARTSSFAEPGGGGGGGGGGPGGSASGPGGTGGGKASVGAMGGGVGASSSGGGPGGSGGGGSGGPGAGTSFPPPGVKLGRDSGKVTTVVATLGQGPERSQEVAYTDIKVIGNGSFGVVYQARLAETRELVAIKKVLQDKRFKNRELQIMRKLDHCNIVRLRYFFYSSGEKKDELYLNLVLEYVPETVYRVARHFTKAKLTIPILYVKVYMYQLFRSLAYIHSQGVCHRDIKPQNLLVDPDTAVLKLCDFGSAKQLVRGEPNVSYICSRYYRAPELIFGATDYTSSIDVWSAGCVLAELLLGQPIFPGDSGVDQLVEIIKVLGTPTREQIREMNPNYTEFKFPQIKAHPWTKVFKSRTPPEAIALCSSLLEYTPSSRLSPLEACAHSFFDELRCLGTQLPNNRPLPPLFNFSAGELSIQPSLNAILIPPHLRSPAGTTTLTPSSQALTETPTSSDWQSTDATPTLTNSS
Data set [6] has as its target Tyrosine-protein kinase ABL1 (Homo sapiens, UniProt P00519). Format: functional.
The target in data set [7] is Glycogen synthase kinase-3 beta (Homo sapiens, UniProt P49841). Format: functional.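 Also: value comes from a broad kinome profiling panel, with GSK3B as the panel member.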
Sequence of Glycogen synthase kinase-3 beta (P49841 whole entry): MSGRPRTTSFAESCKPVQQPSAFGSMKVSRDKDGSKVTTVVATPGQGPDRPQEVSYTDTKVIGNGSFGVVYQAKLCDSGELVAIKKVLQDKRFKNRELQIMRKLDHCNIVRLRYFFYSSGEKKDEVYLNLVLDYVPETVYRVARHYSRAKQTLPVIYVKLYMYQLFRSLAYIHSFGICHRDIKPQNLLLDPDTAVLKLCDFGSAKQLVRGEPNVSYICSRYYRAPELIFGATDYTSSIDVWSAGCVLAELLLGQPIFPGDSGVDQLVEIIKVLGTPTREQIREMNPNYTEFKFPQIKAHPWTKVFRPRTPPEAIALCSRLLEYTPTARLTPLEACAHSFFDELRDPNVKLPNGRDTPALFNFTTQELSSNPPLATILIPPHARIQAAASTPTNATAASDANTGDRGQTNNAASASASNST
Data set [8] addresses Tyrosine-protein kinase FRK (Homo sapiens, UniProt P42685). Format: functional.
The target of the next data set is Cytochrome P450 2C9 (Homo sapiens, UniProt P11712).
Sequence of Cytochrome P450 2C9 (P11712 whole entry): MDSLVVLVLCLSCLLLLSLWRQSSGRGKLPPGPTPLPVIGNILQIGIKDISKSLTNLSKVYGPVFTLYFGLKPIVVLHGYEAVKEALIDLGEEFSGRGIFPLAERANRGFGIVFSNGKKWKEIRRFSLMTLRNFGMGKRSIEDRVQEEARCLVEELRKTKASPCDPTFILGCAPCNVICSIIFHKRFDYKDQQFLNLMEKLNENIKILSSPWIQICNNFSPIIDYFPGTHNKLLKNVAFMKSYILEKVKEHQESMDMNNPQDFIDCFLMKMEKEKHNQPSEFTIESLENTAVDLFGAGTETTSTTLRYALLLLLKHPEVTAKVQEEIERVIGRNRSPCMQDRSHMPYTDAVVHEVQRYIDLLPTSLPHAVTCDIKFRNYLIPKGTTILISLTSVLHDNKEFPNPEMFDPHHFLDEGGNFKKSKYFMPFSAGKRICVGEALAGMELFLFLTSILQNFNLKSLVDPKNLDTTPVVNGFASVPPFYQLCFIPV

Active and inactive are the calls of the source.

Sequence of Tyrosine-protein kinase FRK (P42685 whole entry): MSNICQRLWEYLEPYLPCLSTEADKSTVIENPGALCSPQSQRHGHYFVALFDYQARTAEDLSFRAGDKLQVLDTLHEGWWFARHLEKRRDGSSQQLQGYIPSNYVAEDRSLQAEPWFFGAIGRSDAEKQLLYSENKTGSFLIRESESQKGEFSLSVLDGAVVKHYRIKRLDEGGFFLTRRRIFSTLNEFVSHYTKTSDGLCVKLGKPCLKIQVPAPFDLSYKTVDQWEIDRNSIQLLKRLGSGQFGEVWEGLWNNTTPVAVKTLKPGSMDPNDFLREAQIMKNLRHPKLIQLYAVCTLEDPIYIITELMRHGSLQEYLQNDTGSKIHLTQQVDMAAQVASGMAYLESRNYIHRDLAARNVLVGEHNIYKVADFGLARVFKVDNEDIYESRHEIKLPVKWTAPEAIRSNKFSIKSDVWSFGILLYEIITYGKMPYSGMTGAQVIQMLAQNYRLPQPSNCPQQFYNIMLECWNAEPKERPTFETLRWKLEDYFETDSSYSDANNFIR
Sequence of Tyrosine-protein kinase ABL1 (P00519 whole entry): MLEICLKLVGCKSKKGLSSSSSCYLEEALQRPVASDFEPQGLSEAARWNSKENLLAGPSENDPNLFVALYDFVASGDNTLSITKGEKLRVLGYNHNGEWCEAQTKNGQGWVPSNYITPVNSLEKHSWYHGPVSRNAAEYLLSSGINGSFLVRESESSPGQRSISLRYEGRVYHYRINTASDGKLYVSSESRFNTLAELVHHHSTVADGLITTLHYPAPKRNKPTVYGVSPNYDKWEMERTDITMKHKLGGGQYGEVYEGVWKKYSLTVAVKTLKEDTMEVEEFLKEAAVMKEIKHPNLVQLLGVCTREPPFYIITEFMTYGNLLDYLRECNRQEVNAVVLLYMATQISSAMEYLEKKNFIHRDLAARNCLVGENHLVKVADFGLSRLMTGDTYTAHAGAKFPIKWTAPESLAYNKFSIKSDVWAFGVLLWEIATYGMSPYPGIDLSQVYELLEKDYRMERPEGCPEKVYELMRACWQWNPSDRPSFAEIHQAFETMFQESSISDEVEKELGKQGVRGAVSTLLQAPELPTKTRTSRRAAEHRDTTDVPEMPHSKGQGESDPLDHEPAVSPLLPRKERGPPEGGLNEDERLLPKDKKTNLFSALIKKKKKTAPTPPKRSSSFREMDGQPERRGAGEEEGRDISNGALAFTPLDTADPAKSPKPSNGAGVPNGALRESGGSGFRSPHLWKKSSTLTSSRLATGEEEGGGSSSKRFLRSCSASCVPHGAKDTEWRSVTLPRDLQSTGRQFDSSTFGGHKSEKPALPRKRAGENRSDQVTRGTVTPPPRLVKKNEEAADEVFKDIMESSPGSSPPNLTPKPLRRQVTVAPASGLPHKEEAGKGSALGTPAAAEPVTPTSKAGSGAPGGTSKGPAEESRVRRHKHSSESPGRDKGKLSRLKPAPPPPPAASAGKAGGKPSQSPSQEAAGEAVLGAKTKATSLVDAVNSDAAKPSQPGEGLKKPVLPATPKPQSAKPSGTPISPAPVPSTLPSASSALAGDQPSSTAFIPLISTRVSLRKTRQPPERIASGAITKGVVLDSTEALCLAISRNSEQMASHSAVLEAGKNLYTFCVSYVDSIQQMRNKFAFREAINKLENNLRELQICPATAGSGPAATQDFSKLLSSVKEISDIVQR
Sequence of Calcium/calmodulin-dependent protein kinase type II subunit delta (Q13557 whole entry): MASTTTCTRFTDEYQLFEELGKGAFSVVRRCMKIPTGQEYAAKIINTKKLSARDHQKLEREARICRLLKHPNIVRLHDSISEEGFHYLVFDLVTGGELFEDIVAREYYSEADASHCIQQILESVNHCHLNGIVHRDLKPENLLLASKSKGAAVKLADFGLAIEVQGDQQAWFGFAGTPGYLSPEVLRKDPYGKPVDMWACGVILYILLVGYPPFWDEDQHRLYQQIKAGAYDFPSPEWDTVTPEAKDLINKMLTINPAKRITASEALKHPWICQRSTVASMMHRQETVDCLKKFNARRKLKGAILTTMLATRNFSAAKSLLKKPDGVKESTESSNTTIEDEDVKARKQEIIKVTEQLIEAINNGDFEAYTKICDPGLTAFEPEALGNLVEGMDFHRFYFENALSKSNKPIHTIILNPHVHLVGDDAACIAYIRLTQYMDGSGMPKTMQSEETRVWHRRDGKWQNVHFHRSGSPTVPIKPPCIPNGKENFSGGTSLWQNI

By IC50 is commonly meant the midpoint of a concentration-inhibition curve. For the molecule `O=C(COC(=O)c1ccc([N+](=O)[O-])s1)Nc1cccc(S(=O)(=O)/N=C2/CCCCCN2)c1`, the IC50 is 10 µM (active) on Caspase-3, 7.08 µM (active) in data set [1], 4.62 µM (active) in data set [2] and 4.92 µM (active) in [3].
On to `COc1ccc(C(C[N+](=O)[O-])c2c(C)[nH]n(-c3ccccc3)c2=O)cc1` (centres undefined), for which the IC50 on Caspase-3 was > 100 µM (inactive); in data set [1], 7.15 µM (active); in [2], 7.1 µM (active); in data set [3], 8.32 µM (active).
As a reminder, the Ki is the dissociation constant of the complex between target and ligand, obtained from inhibition or displacement. With `Oc1c2ccccc2c2c3c(cccc13)N=N2` [SP-600125], the Ki in [4] was 1 µM (active); in [5], 1.26 µM (active); in data set [6] it was > 0.631 µM (inactive); in data set [7] it was 0.316 µM (active); in [8], 0.0631 µM (active). Further, on Cytochrome P450 2C9, the AC50 entry was “inconclusive”.
